Values of other authors as cited in US8501717B2, “Methods to treat and/or prevent mucositis” (Merck, Sharp & Dohme Corp., priority 2007, dated 2013).

Details: less than the effect of an equal dose of calcitriol

- hypercalcemic effect compared to calcitriol (in words): reduced hypercalcemic effect
Structure (SMILES): C=C1/C(=C\C=C2/CCC[C@]3(C)C([C@H](C)CC#CC(C)(C)O)=CC[C@@H]23)C[C@@H](O)C[C@@H]1O [Ro23-7553]
